Measurements published in patent US20210268129A1, “Theranostic Radiophotodynamic Therapy Nanoparticles” (priority 2018, published 2021).

Experiments:
[1] = test system: normal skin fibroblast cell line GM38
Procedure: (§1) To confirm, baseline toxicity experiments were conducted with the fully assembled nanoparticles and its constituents. […] MTT assays detected changes in cell proliferation and viability.

[2] = test system: prostate cancer cell line DU145
Procedure: as §1

[3] = test system: prostate cancer cell line PC3
Procedure: as §1

Measured: baseline cytotoxicity over increasing doses

C=CC1=C(C)c2cc3[nH]c(cc4nc(cc5[nH]c(cc1n2)c(C)c5CCC(=O)O)C(CCC(=O)O)=C4C)c(C)c3C=C [PPIX, protoporphyrin IX]
No appreciable differences: all assays above
